# From publication PMC12715788, “Unraveling the Potential of Small Molecule Heparin Glycomimetics in Neuroregenerative Therapeutics” (Journal of the American Chemical Society, 2025)
# pIC50, pKd: −log10 of the molar value. Where “and” joins values, the source holds several entries; their conditions need not be identical. Equal entries are not always repeated. Where two headings read alike, the source gives them in different places.
# Key:
# AT-III = AT-III (Homo sapiens, UniProt P01008); assay: BLI binding assay, sugars immobilized, protein as analyte
# Protocol: (§1) We evaluated the binding affinity of native HS and synthetic HS glycomimetics (M1, D1, D2, D3, and T1) to these proteins using biolayer interferometry (BLI). The terminal amino groups of the sugars were immobilized onto the sensor surface using standard amine coupling chemistry, and binding assays were performed by introducing the proteins as analytes at varying concentrations (Figure A). The equilibrium dissociation constants (K D) were determined using the steady-state affinity curve fitting.
# NGF = NGF (Homo sapiens, UniProt P01138); assay: as above; conditions: steady-state affinity curve fitting
# Protocol: as §1
# FGF-1 [1] = target: T1, FGF-1 (Homo sapiens, UniProt P05230); assay: as above; conditions: steady-state affinity curve fitting
# Protocol: as §1
# FGF-2 [2] = target: T2, FGF-2 (Homo sapiens, UniProt P09038); assay: as above; conditions: steady-state affinity curve fitting
# Protocol: as §1
# PC12 cells = assay: NGF-mediated neurite outgrowth on sugar-coated substrates; assay type: cell-based, rat; conditions: PC12 cells on coated surface, NGF 50 ng/mL; control 108 μm
# Excerpt: We next examined the NGF-induced neuritogenic potential of the HS glycomimetics to determine whether they could potentiate neurotrophin-driven neuronal differentiation. To mimic the native role of HS proteoglycans in the ECM, which spatially sequester and present growth factors, we immobilized D2 and also native HS as a positive control onto culture substrates and evaluated its capacity to modulate neural maturation in two well-established neuronal cell models of different species origins, rat-derived PC12 cells and human-derived SH-SY5Y cells. These models represent distinct stages of neuronal differentiation and maturation, and the choice enabled us to compare cellular responses across species, thereby enhancing the translational relevance of our findings. PC12 cells respond to NGF by exiting the cell cycle and extending neurites, while SH-SY5Y cells serve as a model for later-stage maturation and neurite elongation. , […]
# In PC12 cells, which serve as a classical model for NGF-induced neuronal differentiation, the presence of both immobilized D2 and native HS coatings led to notable morphological changes relative to control conditions (Figure C). […] Although images used for quantification were selected from well-dispersed regions, we also observed instances of cell clustering in both control and D2 groups (Figure S6.1, Supporting Information). […]
# FGF-2 [3] = target: T2, FGF-2; assay: BLI competition assay with immobilized native HS for FGF-2 binding
# Excerpt: We next examined the functional relevance of the synthetic HS glycomimetics by testing their ability to compete with native HS for FGF-2 binding using competition assays. Although direct binding assays measure the intrinsic affinity of HS glycomimetics for FGF-2, they are limited in representing the complex, multimolecular environment of biological systems. In vivo, FGF-2 activity is tightly regulated by its interactions with GAGs, which are abundant on cell surfaces and in the ECM. These interactions stabilize FGF-2 and facilitate its dimerization with FGF receptors (FGFRs), a requirement for effective signal transduction. , Thus, therapeutic candidates targeting FGF-2 must be evaluated not only for direct binding but also for their ability to modulate or disrupt GAG-mediated interactions. Therefore, we performed competition assays in which native HS was immobilized on the sensor surface. Solutions containing a fixed concentration of FGF-2 (50 nM) were premixed with varying concentrations of HS glycomimetics, functioning as inhibitors in this context, (M1, D1, D2, D3, and T1) and also with the heparin hexasaccharide (H1) (GlcNS6S-GlcA-GlcNS3S6S-IdoA2S-GlcNS6S-GlcA), a well-studied HS glycomimetic in the literature, as a positive control (Figure B). […] The progressive decrease in signal intensity with increasing inhibitor concentration directly reflects competition with immobilized HS for FGF-2 binding.
# FGF-1 [4] = target: T1, FGF-1; assay: Far-UV CD spectroscopy and CD thermal denaturation; conditions: CD thermal denaturation 10–90 °C; protein with sugar, 1:3 molar ratio
# Excerpt: (§2) To select a lead compound, we complemented the affinity data with a series of studies evaluating the structural and functional implications of protein-HS glycomimetic interactions. We assessed the therapeutic safety profile of our HS glycomimetics. We also employed circular dichroism (CD) spectroscopy to assess secondary structural changes in protein conformation upon binding to native HS and HS glycomimetics. Since native HS alone produces only a minimal signal, it was ensured that its contribution would not interfere with protein-sugar complex spectra. Therefore, only the far-UV CD spectra of bare proteins and their sugar complexes were recorded. […] Upon incubation with sugars (1:3 molar ratio), significant spectral changes were observed, indicating sugar-induced alterations in secondary structure (Figure A).
# (§3) We also evaluated the thermal stability of the proteins and their sugar complexes by CD-based thermal denaturation experiments. The spectra were recorded across a temperature range of 10–90 °C (Figure B). For all proteins except AT-III, the unfolding profiles were analyzed to determine the melting temperature (T m), representing the midpoint of the transition from the folded to the unfolded state, an indicator of structural integrity and resistance to thermal denaturation. The calculated values are compiled in Table .
# FGF-2 [5] = target: T2, FGF-2; assay: Far-UV CD spectroscopy and CD thermal denaturation; conditions: CD thermal denaturation 10–90 °C; protein with sugar, 1:3 molar ratio
# Excerpt: as §2, §3
# [6] = test system: rat dissociated hippocampal neurons; assay: Neurite morphometry in dissociated hippocampal neurons; assay type: cell-based; conditions: 24 h treatment, 1 day in vitro, D2 1 μM, FGF-2 40 ng/mL, mean ± SEM
# Protocol: In the pursuit of this, we used rat dissociated hippocampal neurons as an in vitro model system. We assessed the impact of HS glycomimetics on neuronal morphology, using immunofluorescence imaging and quantitative morphometric analysis, and on synaptic functionality through electrophysiological monitoring of spontaneous neuronal activity.
# During the first day of differentiation in vitro (Table S7.1 in SI), neurons were treated for 24 h with either control medium, glycomimetic D2 (1 μM), FGF-2 (40 ng/mL) alone, or a combination of FGF-2 and D2 (40 ng/mL and 1 μM, respectively). After treatments, cultures were fixed and immuno-labeled with antibodies against the neuronal marker β-Tubulin III to study cell morphology. […] Quantitative analysis further corroborated these observations (Figure B–C).
# SH-SY5Y cells = assay: NGF-mediated neuronal maturation on sugar-coated substrates, β-tubulin III fluorescence; assay type: cell-based, human; conditions: SH-SY5Y cells on coated surface, NGF 50 ng/mL; control 1.43
# Excerpt: We next examined the NGF-induced neuritogenic potential of the HS glycomimetics to determine whether they could potentiate neurotrophin-driven neuronal differentiation. To mimic the native role of HS proteoglycans in the ECM, which spatially sequester and present growth factors, we immobilized D2 and also native HS as a positive control onto culture substrates and evaluated its capacity to modulate neural maturation in two well-established neuronal cell models of different species origins, rat-derived PC12 cells and human-derived SH-SY5Y cells. These models represent distinct stages of neuronal differentiation and maturation, and the choice enabled us to compare cellular responses across species, thereby enhancing the translational relevance of our findings. PC12 cells respond to NGF by exiting the cell cycle and extending neurites, while SH-SY5Y cells serve as a model for later-stage maturation and neurite elongation. ,
# In this context, the immobilization of D2 onto culture substrates provided a means to investigate how its presentation as an ECM-like component influences neurotrophic responses, particularly in combination with NGF. In both cell lines, D2 and native HS were applied to the substrate prior to seeding, thereby mimicking its natural role as a structural component of the ECM. […]
# [7] = test system: citrated pooled rat plasma; assay: Activated partial thromboplastin time (aPTT) assay
# Excerpt: To complement these findings, we performed an activated partial thromboplastin time (aPTT) assay in citrated pooled rat plasma to assess the overall impact of the compounds on the intrinsic coagulation pathway. This global clotting assay measures the time required for fibrin formation and is sensitive to anticoagulant effects. Figure F,G compare the effects of UFH, heparan sulfate, Fondaparinux, and the synthetic glycomimetics when supplemented into citrated plasma. […] As expected, UFH produced a strong, concentration-dependent anticoagulant response, prolonging the mean clotting time to 271 s at the highest concentration tested, while heparan sulfate and Fondaparinux induced weaker but measurable effects (83 and 37 s, respectively). […] The results further confirm that selective sulfation patterns can decouple GF recognition from anticoagulant function, an essential prerequisite for their translational application in regenerative medicine. […] These interactions are in line with nonspecific electrostatic binding, a feature of highly sulfated oligosaccharides known to engage different proteins via charge-based, rather than specific, biologically targeted interactions. Thus, to avoid potential off-target effects associated with highly sulfated analogues, we selected the disaccharide D2 for subsequent biological experiments.
# T1 sequence (P05230 whole entry, species assumed): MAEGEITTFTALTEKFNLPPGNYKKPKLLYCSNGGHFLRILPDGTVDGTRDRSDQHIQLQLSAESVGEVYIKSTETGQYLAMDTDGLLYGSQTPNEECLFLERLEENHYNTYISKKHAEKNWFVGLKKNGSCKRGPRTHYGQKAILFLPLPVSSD
# T2 sequence (P09038 134-288 limits assumed, species assumed): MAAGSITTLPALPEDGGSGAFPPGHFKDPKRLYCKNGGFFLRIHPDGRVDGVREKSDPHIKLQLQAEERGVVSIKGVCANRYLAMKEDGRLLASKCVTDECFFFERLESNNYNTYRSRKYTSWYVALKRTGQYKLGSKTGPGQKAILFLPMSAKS
# NGF, sequence (P01138 122-241): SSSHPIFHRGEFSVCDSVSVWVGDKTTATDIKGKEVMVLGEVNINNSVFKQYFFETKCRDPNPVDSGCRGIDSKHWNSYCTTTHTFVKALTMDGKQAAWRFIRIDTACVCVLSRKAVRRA
# AT-III, sequence (P01008 33-464): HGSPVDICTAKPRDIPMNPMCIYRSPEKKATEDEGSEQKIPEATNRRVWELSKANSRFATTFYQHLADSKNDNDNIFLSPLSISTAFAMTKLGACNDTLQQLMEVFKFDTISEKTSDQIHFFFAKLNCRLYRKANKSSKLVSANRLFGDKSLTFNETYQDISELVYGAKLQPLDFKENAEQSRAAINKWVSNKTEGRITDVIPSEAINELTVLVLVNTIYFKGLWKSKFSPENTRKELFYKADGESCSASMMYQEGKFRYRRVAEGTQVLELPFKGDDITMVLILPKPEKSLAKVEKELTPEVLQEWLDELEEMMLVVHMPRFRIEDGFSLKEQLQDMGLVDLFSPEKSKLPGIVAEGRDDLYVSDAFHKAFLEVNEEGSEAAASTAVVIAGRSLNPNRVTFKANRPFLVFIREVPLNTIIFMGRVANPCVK
smiles,measurement,setting,value
"CC(=O)N[C@H]1[C@@H](OCCN)O[C@H](COS(=O)(=O)O)[C@@H](O[C@@H]2O[C@@H](C(=O)O)[C@@H](OS(=O)(=O)O)[C@H](O)[C@H]2OS(=O)(=O)O)[C@@H]1O [D2, IdoA2S4S-GlcNAc6S]",binding to AT-III,AT-III,no measurable binding
same,pKd,"NGF; read-out: KD for NGF, two-site binding model, first value",5.59
same,pKd,"NGF; read-out: KD for NGF, two-site binding model, second value",3.33
same,pKd,FGF-1 [1],6.11
same,pKd,FGF-2 [2],6.17
same,total neurite outgrowth per image (average sum of neurite length),PC12 cells,541 μm
same,"competition with immobilized native HS for FGF-2 binding, signal intensity",FGF-2 [3]; FGF-2 50 nM premixed with varying concentrations,dose-dependent reduction in signal intensity
same,pIC50,"FGF-2 [3]; FGF-2 50 nM, fixed association time t = 240 s, read-out: Apparent IC50(t), competition with immobilized native HS for FGF-2 binding",4.75
same,FGF-1 Sample Tm,FGF-1 [4],45.0 °C and 45.0 ± 0.4 °C
same,FGF-2 Sample Tm,FGF-2 [5],52.4 °C and 52.4 ± 1.2 °C
same,number of neurites emerging from the cell body,[6]; control 3.6 ± 0.22,3.8 ± 0.23 neurites per neuron
same,length of the longest neurite,[6]; control 38 ± 2,43 ± 3 μm
same,mean normalized β-tubulin III fluorescence intensity,SH-SY5Y cells,2.15
same,aPTT mean clotting time,"[7]; citrated pooled rat plasma, highest concentration tested, control 22 s",24 s
same,anticoagulant activity,[7]; conclusion from aPTT and chromogenic assays,without any anticoagulant activity
